Reference: US20230114728A1 (Venatorx Pharmaceuticals, Inc., priority 2019, published 2023)
Converted amounts (≈) assume the structure as drawn.

Assays:
Test in all cases: Broth microdilution MIC in iron-depleted CAMHB (IDM)
Format in all cases: cell-based
P. aeruginosa CDC-0110 = conditions: Pseudomonas aeruginosa, CDC0110, read-out: Minimum Inhibitory Concentration, P. aeruginosa CDC-0110
How it was run: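 MIC is the lowest well showing no visible growth after 16-20 h at 37 °C, starting from 2-8×10^5 CFU/mL in 2-fold serial compound dilutions. Medium: cation-adjusted Mueller Hinton broth iron-depleted with Chelex 100, supplemented back with Ca, Mg and Zn, pH 7.3; CLSI protocol.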

[1] = tested on: A. baumannii CDC-0045 producing TEM-1D, OXA-23, and OXA-69; conditions: Acinetobacter baumannii, read-out: Minimum Inhibitory Concentration, CDC-0045
[2] = tested on: A. baumannii CDC-0036 OXA-65, and OXA-24; conditions: Acinetobacter baumannii, read-out: Minimum Inhibitory Concentration, CDC-0036
How it was run: (§1)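 Colonies grow 3-5 h in iron-depleted broth at 37° C, are adjusted by OD600 to give 2-8×10^5 CFU/mL, and are added to 2-fold serial compound dilutions. After 16-20 h (Pseudomonas) or 20-24 h (Acinetobacter) at 37° C, the lowest concentration with no visible growth is the MIC.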

[3] = tested on: P. aeruginosa CDC-0090 producing KPC-5, OXA-50, and PAO; conditions: Pseudomonas aeruginosa, read-out: Minimum Inhibitory Concentration, P. aeruginosa CDC-0090
How it was run: as §1

A. baumannii ATCC 17978 = conditions: Acinetobacter baumannii, ATCC17978, read-out: Minimum Inhibitory Concentration, ATCC 17978
How it was run: as §1

[4] = tested on: P. aeruginosa CDC-0095 producing OXA-50, and PAO; conditions: Pseudomonas aeruginosa, read-out: Minimum Inhibitory Concentration, P. aeruginosa CDC-0095
How it was run: as §1

[5] = tested on: A. baumannii CDC-0033 producing NDM-1, and OXA-94; conditions: Acinetobacter baumannii, read-out: Minimum Inhibitory Concentration, CDC-0033
How it was run: as §1

[6] = tested on: P. aeruginosa (ΔmexAB-oprM); conditions: Pseudomonas aeruginosa, read-out: Minimum Inhibitory Concentration, P. aeruginosa ΔmexAB-OprM
How it was run: as §1

P. aeruginosa ATCC 27853 = conditions: Pseudomonas aeruginosa, ATCC27853, read-out: Minimum Inhibitory Concentration, P. aeruginosa ATCC 27853
How it was run: as §1

A. baumannii ATCC 19606 = conditions: Acinetobacter baumannii, ATCC19606, read-out: Minimum Inhibitory Concentration, ATCC 19606
How it was run: as §1

[7] = tested on: A. baumannii IL123 (ABΔ3-ARAEcPore); conditions: Acinetobacter baumannii, read-out: Minimum Inhibitory Concentration, IL-2123
How it was run: as §1

[8] = tested on: A. baumannii CDC-0083 producing NDM-1, PER-7, OXA-23, and OXA-69; conditions: Acinetobacter baumannii, read-out: Minimum Inhibitory Concentration, CDC-0083
How it was run: as §1

[9] = tested on: P. aeruginosa CDC-0054 producing VIM-4, OXA-50, and PAO; conditions: Pseudomonas aeruginosa, read-out: Minimum Inhibitory Concentration, P. aeruginosa CDC-0054
How it was run: as §1

P. aeruginosa ATCC 35151 = conditions: Pseudomonas aeruginosa, ATCC35151; iron-depleted MHB (IDM); hyper-permeable strain; read-out: Minimum Inhibitory Concentration, P. aeruginosa ATCC 35151
How it was run: as §1

SMILES | MIC (P. aeruginosa CDC-0110) [µg/mL] | MIC [1] [µg/mL] | MIC [2] [µg/mL] | MIC [3] [µg/mL] | MIC (A. baumannii ATCC 17978) [µg/mL] | MIC [4] [µg/mL] | MIC [5] [µg/mL] | MIC [6] [µg/mL] | MIC (P. aeruginosa ATCC 27853) [µg/mL] | MIC (A. baumannii ATCC 19606) [µg/mL] | MIC [7] [µg/mL] | MIC [8] [µg/mL] | MIC [9] [µg/mL] | MIC (P. aeruginosa ATCC 35151) [µg/mL]
O=C(O)c1ccc(C(NC(=O)c2ccc(O)c(O)c2Cl)C(=O)N[C@H]2Cc3cccc(C(=O)O)c3OB2O)cc1F (stereo partly drawn) [Example 7, (3R)-3-(2-(4-carboxy-3-fluorophenyl)-2-(2-chloro-3,4-dihydroxybenzamido)acetamido)-2-hydroxy-3,4-dihydro-2H-benzo[e][1,2]oxaborinine-8-carboxylic acid] | 2 to 4 (≈ 3.49 to 6.98 µM) | 32 to 64 (≈ 55.9 to 112 µM) | 32 to 64 (≈ 55.9 to 112 µM) | 0.5 to 1 (≈ 0.873 to 1.75 µM) | 2 to 4 (≈ 3.49 to 6.98 µM) | 8 to 16 (≈ 14 to 27.9 µM) | 32 to 64 (≈ 55.9 to 112 µM) | 0.25 (≈ 0.437 µM) | 2 to 4 (≈ 3.49 to 6.98 µM) | 32 to 64 (≈ 55.9 to 112 µM) | 32 to 64 (≈ 55.9 to 112 µM) | 32 to 64 (≈ 55.9 to 112 µM) | 2 to 4 (≈ 3.49 to 6.98 µM) | 0.25 (≈ 0.437 µM)
O=C(NC(C(=O)N[C@H]1Cc2ccc(F)c(C(=O)O)c2OB1O)c1ncc(O)cc1F)c1ccc(O)c(O)c1Cl (stereo partly drawn) [Example 8, (3R)-3-(2-(2-chloro-3,4-dihydroxybenzamido)-2-(3-fluoro-5-hydroxypyridin-2-yl)acetamido)-7-fluoro-2-hydroxy-3,4-dihydro-2H-benzo[e][1,2]oxaborinine-8-carboxylic acid] | 0.5 to 1 (≈ 0.887 to 1.77 µM) | 32 to 64 (≈ 56.8 to 114 µM) | 32 to 64 (≈ 56.8 to 114 µM) | 0.25 (≈ 0.444 µM) | 2 to 4 (≈ 3.55 to 7.1 µM) | 2 to 4 (≈ 3.55 to 7.1 µM) | 32 to 64 (≈ 56.8 to 114 µM) | 2 to 4 (≈ 3.55 to 7.1 µM) | 0.5 to 1 (≈ 0.887 to 1.77 µM) | 32 to 64 (≈ 56.8 to 114 µM) | 32 to 64 (≈ 56.8 to 114 µM) | 32 to 64 (≈ 56.8 to 114 µM) | 2 to 4 (≈ 3.55 to 7.1 µM) | 0.25 (≈ 0.444 µM)
O=C(Nc1ccc(O)c(O)c1Cl)NC(C(=O)N[C@H]1Cc2ccc(F)c(C(=O)O)c2OB1O)c1ncc(O)cc1F (stereo partly drawn) [Example 9, (3R)-3-(2-(3-(2-chloro-3,4-dihydroxyphenyl)ureido)-2-(3-fluoro-5-hydroxypyridin-2-yl)acetamido)-7-fluoro-2-hydroxy-3,4-dihydro-2H-benzo[e][1,2]oxaborinine-8-carboxylic acid] | 32 to 64 (≈ 55.3 to 111 µM) | 32 to 64 (≈ 55.3 to 111 µM) | 32 to 64 (≈ 55.3 to 111 µM) | 32 to 64 (≈ 55.3 to 111 µM) | 32 to 64 (≈ 55.3 to 111 µM) | 32 to 64 (≈ 55.3 to 111 µM) | 32 to 64 (≈ 55.3 to 111 µM) | 0.5 to 1 (≈ 0.864 to 1.73 µM) | 8 to 16 (≈ 13.8 to 27.6 µM) | 32 to 64 (≈ 55.3 to 111 µM) | 32 to 64 (≈ 55.3 to 111 µM) | 32 to 64 (≈ 55.3 to 111 µM) | 32 to 64 (≈ 55.3 to 111 µM) | 0.25 (≈ 0.432 µM)
O=C(NC(C(=O)N[C@H]1Cc2ccc(F)c(C(=O)O)c2OB1O)c1ncc(O)cc1F)c1c(F)cc(O)c(O)c1Cl (stereo partly drawn) [Example 10, (3R)-3-(2-(2-chloro-6-fluoro-3,4-dihydroxybenzamido)-2-(3-fluoro-5-hydroxypyridin-2-yl)acetamido)-7-fluoro-2-hydroxy-3,4-dihydro-2H-benzo[e][1,2]oxaborinine-8-carboxylic acid] | 0.5 to 1 (≈ 0.86 to 1.72 µM) | 32 to 64 (≈ 55 to 110 µM) | 32 to 64 (≈ 55 to 110 µM) | 0.5 to 1 (≈ 0.86 to 1.72 µM) | 32 to 64 (≈ 55 to 110 µM) | 2 to 4 (≈ 3.44 to 6.88 µM) | 32 to 64 (≈ 55 to 110 µM) | 0.5 to 1 (≈ 0.86 to 1.72 µM) | 0.5 to 1 (≈ 0.86 to 1.72 µM) | 32 to 64 (≈ 55 to 110 µM) | 32 to 64 (≈ 55 to 110 µM) | 32 to 64 (≈ 55 to 110 µM) | 2 to 4 (≈ 3.44 to 6.88 µM) | 0.25 (≈ 0.43 µM)
CCN1CCN(C(=O)NC(C(=O)N[C@H]2Cc3ccc(F)c(C(=O)O)c3OB2O)c2c(F)cc(O)c(O)c2F)C(=O)C1=O (stereo partly drawn) [Example 36, (3R)-3-(2-(2,6-difluoro-3,4-dihydroxyphenyl)-2-(4-ethyl-2,3-dioxopiperazine-1-carboxamido)acetamido)-7-fluoro-2-hydroxy-3,4-dihydro-2H-benzo[e][1,2]oxaborinine-8-carboxylic acid] | 0.5 to 1 (≈ 0.841 to 1.68 µM) | 0.25 (≈ 0.421 µM) | 0.5 to 1 (≈ 0.841 to 1.68 µM) | 0.5 to 1 (≈ 0.841 to 1.68 µM) | 0.25 (≈ 0.421 µM) | 8 to 16 (≈ 13.5 to 26.9 µM) | 0.5 to 1 (≈ 0.841 to 1.68 µM) | 0.25 (≈ 0.421 µM) | 0.5 to 1 (≈ 0.841 to 1.68 µM) | 0.25 (≈ 0.421 µM) | 0.5 to 1 (≈ 0.841 to 1.68 µM) | 0.25 (≈ 0.421 µM) | 0.5 to 1 (≈ 0.841 to 1.68 µM) | 0.25 (≈ 0.421 µM)
O=C(O)c1c(F)ccc2c1OB(O)[C@@H](NC(=O)C(NC(=O)N1CCN(CCF)C(=O)C1=O)c1c(F)cc(O)c(O)c1F)C2 (stereo partly drawn) [Example 37, (3R)-3-(2-(2,6-difluoro-3,4-dihydroxyphenyl)-2-(4-(2-fluoroethyl)-2,3-dioxopiperazine-1-carboxamido)acetamido)-7-fluoro-2-hydroxy-3,4-dihydro-2H-benzo[e][1,2]oxaborinine-8-carboxylic acid] | 0.5 to 1 (≈ 0.817 to 1.63 µM) | 0.5 to 1 (≈ 0.817 to 1.63 µM) | 2 to 4 (≈ 3.27 to 6.53 µM) | 2 to 4 (≈ 3.27 to 6.53 µM) | 0.25 (≈ 0.408 µM) | 8 to 16 (≈ 13.1 to 26.1 µM) | 2 to 4 (≈ 3.27 to 6.53 µM) | 0.25 (≈ 0.408 µM) | 2 to 4 (≈ 3.27 to 6.53 µM) | 0.25 (≈ 0.408 µM) | 2 to 4 (≈ 3.27 to 6.53 µM) | 0.5 to 1 (≈ 0.817 to 1.63 µM) | 2 to 4 (≈ 3.27 to 6.53 µM) | 0.25 (≈ 0.408 µM)
O=C(O)c1c(F)ccc2c1OB(O)[C@@H](NC(=O)C(NC(=O)N1CCN(CCBr)C(=O)C1=O)c1c(F)cc(O)c(O)c1F)C2 (stereo partly drawn) [Example 38, (3R)-3-(2-(4-(2-bromoethyl)-2,3-dioxopiperazine-1-carboxamido)-2-(2,6-difluoro-3,4-dihydroxyphenyl)acetamido)-7-fluoro-2-hydroxy-3,4-dihydro-2H-benzo[e][1,2]oxaborinine-8-carboxylic acid] | 0.5 to 1 (≈ 0.743 to 1.49 µM) | 0.5 to 1 (≈ 0.743 to 1.49 µM) | 2 to 4 (≈ 2.97 to 5.94 µM) | 2 to 4 (≈ 2.97 to 5.94 µM) | 0.25 (≈ 0.371 µM) | 8 to 16 (≈ 11.9 to 23.8 µM) | 2 to 4 (≈ 2.97 to 5.94 µM) | 0.25 (≈ 0.371 µM) | 2 to 4 (≈ 2.97 to 5.94 µM) | 0.25 (≈ 0.371 µM) | 2 to 4 (≈ 2.97 to 5.94 µM) | 0.5 to 1 (≈ 0.743 to 1.49 µM) | 8 to 16 (≈ 11.9 to 23.8 µM) | 0.25 (≈ 0.371 µM)
CCN1CCN(C(=O)NC(C(=O)N[C@H]2Cc3ccc(F)c(C(=O)O)c3OB2O)c2cc(F)c(O)c(O)c2Cl)C(=O)C1=O (stereo partly drawn) [Example 42, (3R)-3-(2-(2-chloro-5-fluoro-3,4-dihydroxyphenyl)-2-(4-ethyl-2,3-dioxopiperazine-1-carboxamido)acetamido)-7-fluoro-2-hydroxy-3,4-dihydro-2H-benzo[e][1,2]oxaborinine-8-carboxylic acid] | 0.25 (≈ 0.409 µM) | 0.25 (≈ 0.409 µM) | 0.5 to 1 (≈ 0.819 to 1.64 µM) | 0.25 (≈ 0.409 µM) | 0.25 (≈ 0.409 µM) | 0.5 to 1 (≈ 0.819 to 1.64 µM) | 0.5 to 1 (≈ 0.819 to 1.64 µM) | 0.25 (≈ 0.409 µM) | 0.5 to 1 (≈ 0.819 to 1.64 µM) | 0.25 (≈ 0.409 µM) | 0.5 to 1 (≈ 0.819 to 1.64 µM) | 0.25 (≈ 0.409 µM) | 0.5 to 1 (≈ 0.819 to 1.64 µM) | 0.25 (≈ 0.409 µM)
